Assay results as given in patent US10927117B2 (BEIGENE SWITZERLAND GMBH, priority 2016, dated 2021).

System: advanced B cell malignancies
Assay: Phase 1 trial in patients with advanced B cell malignancies (cutoff Oct. 19, 2015)
Type: in vivo, human
Text: A total of 39 patients, including all 25 patients from the initial dose-escalation component and 14 patients from the ongoing dose-expansion component were enrolled.
As of Oct. 19, 2015, the cutoff date for data analysis, 29 objective responses have been observed, including 3 complete responses (CRs), 1 very good partial response (VGPR), and 25 partial responses (PRs). 31 of the 39 patients remain on study treatment, free of progression, including all patients to date who have achieved an objective response.

[1] = Burkitt's-like Lymphoma patients
[2] = Burkitt's-like Lymphoma patients, number of patients/total
[3] = Chronic Lymphocytic Leukemia patients
[4] = Chronic Lymphocytic Leukemia patients, number of patients/total
[5] = DLBCL patients, number of patients/total
[6] = Hairy Cell Leukemia patients, number of patients/total
[7] = Indolent NHL patients, number of patients/total
[8] = Mantle Cell Lymphoma patients, number of patients/total
[9] = Waldenström's Macroglobulinemia patients
[10] = Waldenström's Macroglobulinemia patients, number of patients/total

With `C=CC(=O)N1CCC([C@@H]2CCNc3c(C(N)=O)c(-c4ccc(Oc5ccccc5)cc4)nn32)CC1` [Compound 1, (S)-7-(1-acryloylpiperidin-4-yl)-2-(4-phenoxyphenyl)-4,5,6,7-tetra-hydropyrazolo[1,5-a]pyrimidine-3-carboxamide] the patients who discontinued (6 disease progression, 2 adverse events related to underlying malignancy) was 8, the “exacerbation or new event of atrial fibrillation/flutter (AF)” value (6 patients with baseline history of AF) was “no exacerbation or new event of AF” and the “complete responses (CRs)” value (39 patients enrolled) was 3. The “partial responses (PRs)” value (39 patients enrolled) was 25, the “very good partial response (VGPR)” value (39 patients enrolled) was 1 and the objective responses (39 patients enrolled, cutoff Oct. 19, 2015) was 29. The “Best Response CR” value [1] was “(0%)”, the “Best Response PD” value [1] was “(100%)” and the “Best Response PR” value [1] was “(0%)”. The “Best Response SD” value [1] was “(0%)”, the “ORR (CR + PR)” value [1] was “(0%)” and the “Best Response CR” value [2] was 0/1. For the same compound, the “Best Response PD” value [2] was 1/1, the “Best Response PR” value [2] was 0/1 and the “Best Response SD” value [2] was 0/1. For the same compound, the “ORR (CR + PR)” value [2] was 0/1, the “Best Response PD” value [3] was “(0%)” and the “Best Response SD” value [3] was “(7%)”. For the same compound, the “ORR (CR + PR)” value [3] was “(93%)”, the “Best Response CR” value (Chronic Lymphocytic Leukemia patients, cutoff Oct. 19, 2015) was “(0%)” and the “Best Response PR” value (Chronic Lymphocytic Leukemia patients, includes five patients with lymphocytosis at latest assessment) was “(93%)”. For the same compound, the “Best Response PD” value (Chronic Lymphocytic Leukemia patients, number of patients) was 0, the “Best Response SD” value [4] was 1/14 and the “ORR (CR + PR)” value [4] was 13/14. For the same compound, the “Best Response CR” value (Chronic Lymphocytic Leukemia patients, number of patients/total, cutoff Oct. 19, 2015) was 0/14, the “Best Response PR” value (Chronic Lymphocytic Leukemia patients, number of patients/total, includes five patients with lymphocytosis at latest assessment) was 13/14^1 and the “Best Response CR” value (DLBCL patients) was “(25%)”. For the same compound, the “Best Response PD” value (DLBCL patients) was “(75%)”, the “Best Response PR” value (DLBCL patients) was “(0%)” and the “Best Response SD” value (DLBCL patients) was “(0%)”. For the same compound, the “ORR (CR + PR)” value (DLBCL patients) was “(25%)”, the “Best Response CR” value [5] was 1/4 and the “Best Response PD” value [5] was 3/4. The “Best Response PR” value [5] was 0/4, the “Best Response SD” value [5] was 0/4 and the “ORR (CR + PR)” value [5] was 1/4. For the same compound, the “Best Response CR” value (Hairy Cell Leukemia patients) was “(0%)”, the “Best Response PD” value (Hairy Cell Leukemia patients) was “(0%)” and the “Best Response PR” value (Hairy Cell Leukemia patients) was “(100%)”. The “Best Response SD” value (Hairy Cell Leukemia patients) was “(0%)”, the “ORR (CR + PR)” value (Hairy Cell Leukemia patients) was “(100%)” and the “Best Response CR” value [6] was 0/1. For the same compound, the “Best Response PD” value [6] was 0/1, the “Best Response PR” value [6] was 1/1 and the “Best Response SD” value [6] was 0/1. The “ORR (CR + PR)” value [6] was 1/1, the “Best Response CR” value (Indolent NHL patients) was “(0%)” and the “Best Response PD” value (Indolent NHL patients) was “(0%)”. For the same compound, the “Best Response PR” value (Indolent NHL patients) was “(0%)”, the “Best Response SD” value (Indolent NHL patients) was “(100%)” and the “ORR (CR + PR)” value (Indolent NHL patients) was “(0%)”. For the same compound, the “Best Response CR” value [7] was 0/2, the “Best Response PD” value [7] was 0/2 and the “Best Response PR” value [7] was 0/2. For the same compound, the “Best Response SD” value [7] was 2/2, the “ORR (CR + PR)” value [7] was 0/2 and the “Best Response CR” value (Mantle Cell Lymphoma patients) was “(20%)”. The “Best Response PD” value (Mantle Cell Lymphoma patients) was “(10%)”, the “Best Response PR” value (Mantle Cell Lymphoma patients) was “(60%)” and the “Best Response SD” value (Mantle Cell Lymphoma patients) was “(10%)”. For the same compound, the “ORR (CR + PR)” value (Mantle Cell Lymphoma patients) was “(80%)”, the “Best Response CR” value [8] was 2/10 and the “Best Response PD” value [8] was 1/10. The “Best Response PR” value [8] was 6/10, the “Best Response SD” value [8] was 1/10 and the “ORR (CR + PR)” value [8] was 8/10. For the same compound, the “Best Response CR” value [9] was “(0%)”, the “Best Response PD” value [9] was “(14%)” and the “Best Response SD” value [9] was “(0%)”. For the same compound, the “ORR (CR + PR)” value [9] was “(86%)”, the “Best Response PR” value (Waldenström's Macroglobulinemia patients, includes one patient with VGPR) was “(86%)” and the “Best Response CR” value [10] was 0/7. The “Best Response PD” value [10] was 1/7, the “Best Response SD” value [10] was 0/7 and the “ORR (CR + PR)” value [10] was 6/7. The “Best Response PR” value (Waldenström's Macroglobulinemia patients, number of patients/total, includes one patient with VGPR) was 6/7^2, the “≥Grade 3 AEs assessed as possibly drug-related” value (all self-limited neutropenia) was 4 and the “patients who died during study” value (disease progression or its complications) was 3. The “drug-related serious adverse events (SAEs)” value (human, in vivo) was “no drug-related serious adverse events”, the “number of ≥Grade 3 AEs” value (human, in vivo) was 19 and the major hemorrhage (not considered drug-related) was “one case”. For the same compound, the “patients remaining on study treatment, free of progression” value (of the 39 patients) was 31.
